The text below walks through data of patent publication US9044424B2, “Methods of regulating glucose metabolism, and reagents related thereto” (Trustees of Tufts College, priority 1998, dated 2015).

One series concerns the target DP-IV (Homo sapiens, UniProt P27487). The series is described as follows: DP-IV inhibition / affinity.
The conditions of series [1]: cited from earlier work.
The next series concerns mice. The series is described as follows: Oral glucose tolerance test in mice. It is filed as in vivo. Particulars: for glucose levels in blood / glucose control: single injection alone, one hour prior to oral glucose challenge, FIG. 3; for response to a sub-therapeutic dose of GLP-1: single injection, with 8 μg GLP-1. As to the method: The first two experiments are “acute” experiments wherein the mice were injected with a single dose of Pro-boro-pro. In the first set of experiments mice were injected with 150 μg of Pro-boro-pro (PBP-1) and then subjected to an oral glucose tolerance test within an hour. […] In a second set of experiments mice were injected with Pro-boro-pro (PBP-2) one hour prior to an oral glucose challenge test. FIG. 3 presents the results of these experiments. Each set of experiments was also performed using saline as a control.
The third set of experiments were “chronic” experiments, wherein the mice were injected twice daily with Pro-boro-pro for four days, followed by an oral glucose challenge.

Setting [2] is: chronic (>5 days) treatment alone.

Where two headings read alike, the source gives them in different places.

Sequence of DP-IV (P27487 whole entry): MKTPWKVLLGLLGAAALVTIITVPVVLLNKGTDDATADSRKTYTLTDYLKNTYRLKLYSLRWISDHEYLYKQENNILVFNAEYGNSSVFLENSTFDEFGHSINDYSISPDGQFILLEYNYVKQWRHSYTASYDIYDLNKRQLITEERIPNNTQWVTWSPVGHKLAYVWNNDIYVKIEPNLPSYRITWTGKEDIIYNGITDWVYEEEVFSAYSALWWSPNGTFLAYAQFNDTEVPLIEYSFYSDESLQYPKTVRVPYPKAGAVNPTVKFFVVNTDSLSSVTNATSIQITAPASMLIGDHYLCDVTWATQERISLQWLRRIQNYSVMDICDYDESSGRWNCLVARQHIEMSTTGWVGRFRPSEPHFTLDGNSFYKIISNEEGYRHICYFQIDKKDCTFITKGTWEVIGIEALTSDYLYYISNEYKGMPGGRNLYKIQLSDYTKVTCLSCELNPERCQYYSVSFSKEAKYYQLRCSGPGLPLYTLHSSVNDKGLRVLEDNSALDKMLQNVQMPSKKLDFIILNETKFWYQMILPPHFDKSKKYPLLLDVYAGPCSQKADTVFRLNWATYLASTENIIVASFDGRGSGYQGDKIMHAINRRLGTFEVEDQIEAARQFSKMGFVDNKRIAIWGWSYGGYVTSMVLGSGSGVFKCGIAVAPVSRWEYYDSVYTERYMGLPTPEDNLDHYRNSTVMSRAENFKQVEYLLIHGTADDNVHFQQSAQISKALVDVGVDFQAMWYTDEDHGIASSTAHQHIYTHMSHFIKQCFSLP
Experimental for DP-IV: As an illustrative embodiment, the ability of a test agent to inhibit DPIV can be assessed using a colorimetric or fluorometric substrate, such as Ala-Pro-paranitroanilide.
An illustrative reaction mixture includes 50 μM sodium Hepes (pH7.8), 10 μM Ala-Pro-paranitroanilide, 6 milliunits of DPIV, and 2% (v/v) dimethylformamide in a total volume of 1.0 mL. The reaction is initiated by addition of enzyme, and formation of reaction product (paranitroanilide) in the presence and absence of a test compound can be detected photometrically, e.g., at 410 nm.

As to L-Ala-L-boroPro-pinacol, the “extent of DP-IV inhibition” value at DP-IV (silica gel fractions compared at equal concentrations) is given as “inhibits DP-IV to a greater extent than later fractions”.

On to glucagon-like peptide-1 [GLP-1], for which the “metabolite share of the increase in plasma immunoreactivity (COOH-terminal RIA)” value in series [1] (thirty minutes after subcutaneous GLP-1, diabetic patients (n=8)) is given as 88.5+1.9%; in series [1] (thirty minutes after subcutaneous GLP-1, healthy subjects (n=8)) it was 78.4+3.2%.

Take `O=C(C1CCCN1)N1CCCC1B(O)O` (stereo not shown) [Pro-boro-pro]: the fasting blood sugars result in the series with mice (setting [2]) is reported as “lowers”. Further, the “glycemic excursion to oral glucose challenge” value in the series with mice (setting [2]) is “lowers”. Besides, in the series with mice (chronic: injected twice daily for four days, then oral glucose challenge, FIG. 4), the blood sugar levels result is given as “lowering of the blood sugar levels”. Besides, the blood sugar result with mice (oral glucose challenge in mice, overall statement) was “clearly lowers blood sugar”. For the same compound, in the series on mice (single injection 150 μg, oral glucose tolerance test within an hour, 8 μg GLP-1 five minutes prior to glucose, FIG. 2), the “glucose levels in blood (glucose tolerance curve)” value is on record as “improves glucose levels in blood”. For the same compound, the “glucose levels in blood / glucose control” value is on record as “alone sufficient to improve glucose control” in the series with mice and “improves glucose levels in blood” in the series on mice (listed as PBP-2). The “response to a sub-therapeutic dose of GLP-1” value with mice (FIG. 2) is “potentiate the response to a subtherapeutic dose of GLP-1”; with mice (FIG. 2, listed as PBP-1), “potentiates the response to a sub-therapeutic dose of GLP-1”.

On to `CC(NC(=O)OC(C)(C)C)C(=O)N1CCCC1B(O)O` (stereo not drawn) [Boc-blocked Ala-boroPro, Boc-Ala-boroPro], for which, at DP-IV, the “affinity for DP-IV” value is given as “no affinity”.
